Data: the CheMixHub ionic liquid set
Values joined by “and” are separate entries in the source; they are usually repeats but may differ in a detail not shown here. Identical values can stand only once. ± gives the uncertainty stated by the source.

Assay: xn = mol fraction of the nth substance listed

CCCC[n+]1ccn(C)c1.[Br-] + O
Conditions | electrical conductivity [S/m] | viscosity
288.15 K, 100 kPa, x1 = 0.00126 | – | 1.159 ± 0.044 mPa·s
293.15 K, 100 kPa, x1 = 0.0009002 | – | 1.033 ± 0.032 mPa·s
293.15 K, 100 kPa, x1 = 0.001799 | – | 1.057 ± 0.032 mPa·s
293.15 K, 100 kPa, x1 = 0.002696 | – | 1.069 ± 0.032 mPa·s
298.15 K, 100 kPa, x1 = 0.0001802 | – | 0.916 ± 0.043 mPa·s
298.15 K, 100 kPa, x1 = 0.0007203 | – | 0.921 ± 0.043 mPa·s
298.15 K, 100 kPa, x1 = 0.0009002 | – | 0.918 ± 0.031 mPa·s
298.15 K, 100 kPa, x1 = 0.00126 | – | 0.93 ± 0.043 mPa·s
298.15 K, 100 kPa, x1 = 0.001799 | – | 0.938 ± 0.031 mPa·s
298.15 K, 100 kPa, x1 = 0.002696 | – | 1 ± 0.032 mPa·s
298.15 K, 101 kPa, x1 = 1.982e-05 | – | 0.888 ± 0.019 mPa·s
298.15 K, 101 kPa, x1 = 3.243e-05 | – | 0.889 ± 0.019 mPa·s
298.15 K, 101 kPa, x1 = 0.00999 | 3.16 ± 0.01 | –
298.15 K, 101 kPa, x2 = 0.9094 | 6.16 ± 0.01 | –
298.15 K, 101 kPa, x2 = 0.94 | 6.13 ± 0.01 | –
298.15 K, 101 kPa, x2 = 0.9612 | 5.7 ± 0.01 | –
298.15 K, 101 kPa, x2 = 0.9773 | 4.79 ± 0.01 | –
298.15 K, 101.3 kPa, x1 = 0.000902 | – | 0.911 ± 0.024 mPa·s
298.15 K, 101.3 kPa, x1 = 0.0009056 | – | 0.91 ± 0.024 mPa·s and 0.911 ± 0.024 mPa·s
298.15 K, 101.3 kPa, x1 = 0.0009074 | – | 0.911 ± 0.024 mPa·s
298.15 K, 101.3 kPa, x1 = 0.000911 | – | 0.91 ± 0.024 mPa·s
298.15 K, 101.3 kPa, x1 = 0.00144 | – | 0.933 ± 0.06 mPa·s and 0.936 ± 0.06 mPa·s
298.15 K, 101.3 kPa, x1 = 0.001806 | – | 0.934 ± 0.025 mPa·s and 0.935 ± 0.025 mPa·s
298.15 K, 101.3 kPa, x1 = 0.001835 | – | 0.923 ± 0.025 mPa·s
298.15 K, 101.3 kPa, x1 = 0.001856 | – | 0.932 ± 0.025 mPa·s
298.15 K, 101.3 kPa, x1 = 0.0036 | – | 0.966 ± 0.026 mPa·s
298.15 K, 101.3 kPa, x1 = 0.003602 | – | 0.961 ± 0.026 mPa·s
298.15 K, 101.3 kPa, x1 = 0.003605 | – | 0.961 ± 0.026 mPa·s and 0.963 ± 0.026 mPa·s
298.15 K, 101.3 kPa, x1 = 0.005384 | – | 0.994 ± 0.027 mPa·s
298.15 K, 101.3 kPa, x1 = 0.005411 | – | 0.997 ± 0.027 mPa·s and 0.998 ± 0.027 mPa·s
298.15 K, 101.3 kPa, x1 = 0.005432 | – | 1.004 ± 0.027 mPa·s
303.15 K, 100 kPa, x1 = 0.0009002 | – | 0.823 ± 0.031 mPa·s
303.15 K, 100 kPa, x1 = 0.001799 | – | 0.84 ± 0.031 mPa·s
303.15 K, 100 kPa, x1 = 0.002696 | – | 0.905 ± 0.031 mPa·s
303.15 K, 100 kPa, x1 = 0.05 | – | 2 ± 0.2 mPa·s
303.15 K, 100 kPa, x1 = 0.0992 | – | 3.31 ± 0.33 mPa·s
303.15 K, 100 kPa, x1 = 0.3882 | – | 31.2 ± 3.1 mPa·s
308.15 K, 100 kPa, x1 = 0.0001802 | – | 0.751 ± 0.043 mPa·s
308.15 K, 100 kPa, x1 = 0.0007203 | – | 0.756 ± 0.043 mPa·s
308.15 K, 100 kPa, x1 = 0.0009002 | – | 0.753 ± 0.031 mPa·s
308.15 K, 100 kPa, x1 = 0.00126 | – | 0.763 ± 0.043 mPa·s
308.15 K, 100 kPa, x1 = 0.001799 | – | 0.758 ± 0.031 mPa·s
308.15 K, 100 kPa, x1 = 0.002696 | – | 0.795 ± 0.031 mPa·s
308.15 K, 101 kPa, x1 = 3.243e-05 | – | 0.723 ± 0.016 mPa·s
308.15 K, 101 kPa, x1 = 6.584e-05 | 0.0466 ± 0.00047 | 0.727 ± 0.015 mPa·s
308.15 K, 101 kPa, x1 = 6.667e-05 | – | 0.727 ± 0.016 mPa·s
308.15 K, 101 kPa, x1 = 0.0001326 | 0.0915 ± 0.00093 | 0.735 ± 0.016 mPa·s
308.15 K, 101.3 kPa, x1 = 0.000902 | – | 0.738 ± 0.02 mPa·s
308.15 K, 101.3 kPa, x1 = 0.0009056 | – | 0.735 ± 0.02 mPa·s and 0.736 ± 0.02 mPa·s
308.15 K, 101.3 kPa, x1 = 0.0009074 | – | 0.737 ± 0.02 mPa·s
308.15 K, 101.3 kPa, x1 = 0.000911 | – | 0.735 ± 0.02 mPa·s
308.15 K, 101.3 kPa, x1 = 0.001806 | – | 0.752 ± 0.02 mPa·s
308.15 K, 101.3 kPa, x1 = 0.001835 | – | 0.746 ± 0.02 mPa·s and 0.747 ± 0.02 mPa·s
308.15 K, 101.3 kPa, x1 = 0.001856 | – | 0.75 ± 0.02 mPa·s
308.15 K, 101.3 kPa, x1 = 0.0036 | – | 0.776 ± 0.021 mPa·s
308.15 K, 101.3 kPa, x1 = 0.003602 | – | 0.773 ± 0.021 mPa·s
308.15 K, 101.3 kPa, x1 = 0.003605 | – | 0.77 ± 0.021 mPa·s and 0.771 ± 0.021 mPa·s
308.15 K, 101.3 kPa, x1 = 0.005384 | – | 0.798 ± 0.021 mPa·s
308.15 K, 101.3 kPa, x1 = 0.005411 | – | 0.801 ± 0.021 mPa·s
308.15 K, 101.3 kPa, x1 = 0.005432 | – | 0.802 ± 0.021 mPa·s
310.15 K, 101.3 kPa, x1 = 0.000902 | – | 0.711 ± 0.019 mPa·s
310.15 K, 101.3 kPa, x1 = 0.0009056 | – | 0.707 ± 0.019 mPa·s
310.15 K, 101.3 kPa, x1 = 0.0009074 | – | 0.71 ± 0.019 mPa·s
310.15 K, 101.3 kPa, x1 = 0.000911 | – | 0.707 ± 0.019 mPa·s
310.15 K, 101.3 kPa, x1 = 0.001806 | – | 0.723 ± 0.019 mPa·s
310.15 K, 101.3 kPa, x1 = 0.001835 | – | 0.717 ± 0.019 mPa·s and 0.718 ± 0.019 mPa·s
310.15 K, 101.3 kPa, x1 = 0.001856 | – | 0.723 ± 0.019 mPa·s
310.15 K, 101.3 kPa, x1 = 0.0036 | – | 0.75 ± 0.02 mPa·s
310.15 K, 101.3 kPa, x1 = 0.003602 | – | 0.746 ± 0.02 mPa·s
310.15 K, 101.3 kPa, x1 = 0.003605 | – | 0.74 ± 0.02 mPa·s and 0.742 ± 0.02 mPa·s
310.15 K, 101.3 kPa, x1 = 0.005384 | – | 0.767 ± 0.021 mPa·s
310.15 K, 101.3 kPa, x1 = 0.005411 | – | 0.767 ± 0.021 mPa·s
310.15 K, 101.3 kPa, x1 = 0.005432 | – | 0.772 ± 0.021 mPa·s
313.15 K, 100 kPa, x1 = 0.0009002 | – | 0.676 ± 0.031 mPa·s
313.15 K, 100 kPa, x1 = 0.001799 | – | 0.689 ± 0.031 mPa·s
313.15 K, 100 kPa, x1 = 0.002696 | – | 0.749 ± 0.031 mPa·s
313.15 K, 100 kPa, x1 = 0.3882 | – | 20 ± 2 mPa·s
313.15 K, 101.3 kPa, x1 = 0.00144 | – | 0.58 ± 0.1 mPa·s and 0.695 ± 0.06 mPa·s and 0.697 ± 0.06 mPa·s
318.15 K, 100 kPa, x1 = 0.0001802 | – | 0.634 ± 0.042 mPa·s
318.15 K, 100 kPa, x1 = 0.0007203 | – | 0.64 ± 0.042 mPa·s
318.15 K, 100 kPa, x1 = 0.0009002 | – | 0.618 ± 0.031 mPa·s and 0.619 ± 0.031 mPa·s
318.15 K, 100 kPa, x1 = 0.00126 | – | 0.646 ± 0.042 mPa·s
318.15 K, 100 kPa, x1 = 0.001799 | – | 0.631 ± 0.031 mPa·s
318.15 K, 100 kPa, x1 = 0.002696 | – | 0.68 ± 0.031 mPa·s
318.15 K, 101.3 kPa, x1 = 0.000902 | – | 0.611 ± 0.016 mPa·s
318.15 K, 101.3 kPa, x1 = 0.0009056 | – | 0.608 ± 0.016 mPa·s and 0.609 ± 0.016 mPa·s
318.15 K, 101.3 kPa, x1 = 0.0009074 | – | 0.612 ± 0.016 mPa·s
318.15 K, 101.3 kPa, x1 = 0.000911 | – | 0.608 ± 0.016 mPa·s
318.15 K, 101.3 kPa, x1 = 0.001806 | – | 0.623 ± 0.017 mPa·s
318.15 K, 101.3 kPa, x1 = 0.001835 | – | 0.619 ± 0.017 mPa·s
318.15 K, 101.3 kPa, x1 = 0.001856 | – | 0.622 ± 0.017 mPa·s
318.15 K, 101.3 kPa, x1 = 0.0036 | – | 0.643 ± 0.017 mPa·s
318.15 K, 101.3 kPa, x1 = 0.003602 | – | 0.642 ± 0.017 mPa·s
318.15 K, 101.3 kPa, x1 = 0.003605 | – | 0.638 ± 0.017 mPa·s and 0.639 ± 0.017 mPa·s
318.15 K, 101.3 kPa, x1 = 0.005384 | – | 0.659 ± 0.018 mPa·s and 0.66 ± 0.018 mPa·s
318.15 K, 101.3 kPa, x1 = 0.005411 | – | 0.66 ± 0.018 mPa·s
318.15 K, 101.3 kPa, x1 = 0.005432 | – | 0.665 ± 0.018 mPa·s
323.15 K, 100 kPa, x1 = 0.3882 | – | 14.6 ± 1.5 mPa·s
333.15 K, 100 kPa, x1 = 0.05 | – | 1.04 ± 0.1 mPa·s
333.15 K, 100 kPa, x1 = 0.0992 | – | 1.66 ± 0.17 mPa·s
333.15 K, 100 kPa, x1 = 0.1979 | – | 3.69 ± 0.37 mPa·s
333.15 K, 100 kPa, x1 = 0.2517 | – | 4.94 ± 0.5 mPa·s
333.15 K, 100 kPa, x1 = 0.3882 | – | 10.6 ± 1.1 mPa·s
